Source: patent publication US20240262814A1, “MODULATORS OF TREX1” (Constellation Pharmaceuticals, Inc., priority 2021, published 2024)

Tests used:
[1] = target: T1, human TREX1 (Homo sapiens, UniProt Q9NSU2); assay: hTREX1 Biochemical Assay (fluorescence, dsDNA substrate degradation); conditions: full length human TREX1, 4 h pre-incubation, 18 h reaction at 25° C.
T1 construct: N-terminally His-Tev tagged full length human TREX1; made in house; host or cells: E. coli
T1 sequence (Q9NSU2 1-314): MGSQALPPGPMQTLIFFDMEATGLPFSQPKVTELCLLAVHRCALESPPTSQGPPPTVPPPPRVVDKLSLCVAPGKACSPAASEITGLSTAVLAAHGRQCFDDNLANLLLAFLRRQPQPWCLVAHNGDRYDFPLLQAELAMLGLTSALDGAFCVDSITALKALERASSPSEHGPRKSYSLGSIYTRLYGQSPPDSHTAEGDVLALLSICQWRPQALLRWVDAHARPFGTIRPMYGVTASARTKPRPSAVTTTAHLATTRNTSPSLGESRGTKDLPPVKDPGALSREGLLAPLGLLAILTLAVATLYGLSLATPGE
Description: (§1) Degradation of the dsDNA liberates free fluorophore to produce a fluorescent signal. Specifically, 7.5 μL of N-terminally His-Tev tagged full length human TREX1 (expressed in E. coli and purified in house) in reaction buffer (50 mM Tris, 150 mM NaCl, 2 mM DTT, 0.1 mg/mL BSA, 0.01% (w/v) Tween-20, 5 mM MgCl2, pH 7.4) was added to a 384-well Black ProxiPlate Plus (PerkinElmer) which already contained compound (150 nL) at varying concentrations as a 10 point dose-response in DMSO. The plate was incubated at 25° C. for 4 hours. Reactions were initiated by adding 7.5 μL of dsDNA substrate (Strand A: 5′ TEX615/GCT AGG CAG 3′; Strand B: 5′ CTG CCT AGC/IAbRQSp (Integrated DNA Technologies)) in reaction buffer. Final concentrations were 4 pM TREX1, 60 nM dsDNA substrate in reaction buffer with 1.0% DMSO (v/v). After 18 hours at 25° C., reactions were quenched by the addition of 2 p L of 500 mM EDTA. Final concentrations in the quenched reaction were 3.5 pM TREX1, 53 nM DNA and 59 mM EDTA in a volume of 17 μL. After a 5-minute incubation at room temperature, plates were read in an EnVision plate reader (PerkinElmer) measuring fluorescence at 615 nm following excitation w/ 570 nm light. IC50 values were calculated by comparing the measured fluorescence at 615 nm relative to control wells pre-quenched w/ EDTA (100% inhibition) and no inhibitor (0% inhibition) controls as using non-linear least square four parameter fits and either Genedata or GraphPad Prism (GraphPad Software, Inc.).

[2] = target: T2, mouse TREX1 (Mus musculus, UniProt Q91XB0); assay: mTREX1 Biochemical Assay (fluorescence, dsDNA substrate degradation); conditions: full length mouse TREX1, 4 h pre-incubation, 18 h reaction at 25° C.
T2 construct: N-terminally His-Tev tagged full length mouse TREX1; made in house; host or cells: E. coli
T2 sequence (Q91XB0 1-314): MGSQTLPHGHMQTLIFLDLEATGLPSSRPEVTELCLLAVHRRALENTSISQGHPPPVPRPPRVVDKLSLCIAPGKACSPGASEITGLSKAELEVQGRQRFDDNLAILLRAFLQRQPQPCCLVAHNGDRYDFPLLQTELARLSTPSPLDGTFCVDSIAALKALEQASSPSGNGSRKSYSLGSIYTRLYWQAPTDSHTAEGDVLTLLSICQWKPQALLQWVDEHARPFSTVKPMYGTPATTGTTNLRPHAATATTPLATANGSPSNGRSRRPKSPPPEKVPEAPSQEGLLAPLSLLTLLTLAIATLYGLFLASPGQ
Description: as §1, with “Specifically, 7.5 p L of N-terminally” for “Specifically, 7.5 μL of N-terminally”, “full length mouse TREX1 (expressed” for “full length human TREX1 (expressed”, “concentrations were 6 pM TREX1,” for “concentrations were 4 pM TREX1,”, “reaction were 5.3 pM TREX1,” for “reaction were 3.5 pM TREX1,”, “of 17 p L. After a” for “of 17 μL. After a”

[3] = target: T3, human TREX2 (Homo sapiens, UniProt Q9BQ50); assay: hTREX2 Biochemical Assay (selectivity hTREX1 vs hTREX2); conditions: biochemical selectivity for hTREX1 vs hTREX2
T3 construct: human TREX2 (residues M44-A279, expressed in E. coli); made in house; host or cells: E. coli
T3 sequence (Q9BQ50 44-279 isoform Q9BQ50-1): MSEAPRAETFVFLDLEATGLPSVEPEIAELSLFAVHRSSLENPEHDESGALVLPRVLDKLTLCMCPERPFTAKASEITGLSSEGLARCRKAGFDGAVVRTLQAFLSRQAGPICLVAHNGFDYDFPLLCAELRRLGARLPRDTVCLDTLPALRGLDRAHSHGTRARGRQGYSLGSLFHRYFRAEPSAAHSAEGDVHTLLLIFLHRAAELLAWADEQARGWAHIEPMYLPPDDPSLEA
Description: Degradation of the dsDNA liberates free fluorophore to produce a fluorescent signal. Specifically, 7.5 p L of N-terminally His-Tev tagged human TREX2 (residues M44-A279, expressed in E. coli and purified in house) in reaction buffer (50 mM Tris, 150 mM NaCl, 2 mM DTT, 0.1 mg/mL BSA, 0.01% (w/v) Tween-20, 5 mM MgCl2, pH 7.4) was added to a 384-well Black ProxiPlate Plus (PerkinElmer) which already contained compound (150 nL) at varying concentrations as a 10 point dose-response in DMSO. The plate was incubated at 25° C. for 4 hours. Reactions were initiated by adding 7.5 μL of dsDNA substrate (Strand A: 5′ TEX615/GCT AGG CAG 3′; Strand B: 5′ CTG CCT AGC/IAbRQSp (IDT)) in reaction buffer. Final concentrations were 50 pM TREX2, 60 nM dsDNA substrate in reaction buffer with 1.0% DMSO (v/v). After 18 hours at 25° C., reactions were quenched by the addition of 2 μL of 500 mM EDTA. Final concentrations in the quenched reaction mixture were 44 pM TREX2, 53 nM DNA and 59 mM EDTA in a volume of 17 μL. After a 5-minute incubation at room temperature, plates were read in an EnVision plate reader (PerkinElmer) measuring fluorescence at 615 nm following excitation w/ 570 nm light. IC50 values were calculated by comparing the measured fluorescence at 615 nm relative to control wells pre-quenched w/ stop buffer (100% inhibition) and no inhibitor (0% inhibition) controls as using non-linear least square four parameter fits and either Genedata or GraphPad Prism (GraphPad Software, Inc.).

| Structure (SMILES) | IC50 [1] [nM] | IC50 [2] [nM] | hTREX1 vs hTREX2 selectivity [3] |
| --- | --- | --- | --- |
| C[C@H](c1nc(C(=O)Nc2cnoc2)c(O)c(=O)n1C)[C@H](c1ccccc1)c1ccccc1Cl (single isomer, unassigned) [Example 2 Isomer 1, 2-[1-(2-chlorophenyl)-1-phenylpropan-2-yl]-5-hydroxy-1-methyl-N-(1,2-oxazol-4-yl)-6-oxopyrimidine-4-carboxamide] | 1 to 10 | > 10 | A (A = <25 fold selective for hTREX1) |
| CC(c1nc(C(=O)Nc2cnoc2)c(O)c(=O)[nH]1)C(c1ccccc1C#N)c1ccccc1C#N (single isomer, unassigned) [Example 5 Isomer 2, 2-(1,1-bis(2-cyanophenyl)propan-2-yl)-5-hydroxy-N-(isoxazol-4-yl)-6-oxo-1,6-dihydropyrimidine-4-carboxamide] | 1 to 10 | > 10 |  |
| CC(c1nc(C(=O)Nc2cnoc2)c(O)c(=O)n1C)C(c1ccccc1)c1cc(F)ccc1C#N (single isomer, unassigned) [Example 6 Isomer 2] | > 100 | > 10 |  |
| CC(c1nc(C(=O)Nc2cnoc2)c(O)c(=O)n1C)C(c1ccccc1)c1ccc(F)cc1C#N (single isomer, unassigned) [Example 7 Isomer 3] | > 100 | > 10 |  |
| CC(c1nc(C(=O)Nc2cnoc2)c(O)c(=O)n1C)C(c1ccccc1)c1cc(Cl)ccc1C#N (single isomer, unassigned) [Example 8 Isomer 1] | > 100 | > 10 |  |
| CC(c1nc(C(=O)Nc2cnoc2)c(O)c(=O)n1C)C(c1ccccc1)c1ccc(Cl)cc1C#N (single isomer, unassigned) [Example 9 Isomer 3] | > 100 | > 10 |  |
| CC(c1nc(C(=O)Nc2cnoc2)c(O)c(=O)n1C)C(c1cc(F)cc(F)c1)c1ccccc1C#N (single isomer, unassigned) [Example 11 Isomer 1] | > 100 | > 10 |  |
| CC(c1nc(C(=O)Nc2cnoc2)c(O)c(=O)n1C)C(c1ccc(F)c(F)c1)c1ccccc1C#N (single isomer, unassigned) [Example 12 Isomer 2] | > 100 | > 10 |  |
| CC(c1nc(C(=O)Nc2cnoc2)c(O)c(=O)n1C)C(c1ccc(F)cc1F)c1ccccc1C#N (single isomer, unassigned) [Example 13 Isomer 4] | > 100 | > 10 |  |
| C[C@H](c1nc(C(=O)Nc2cnoc2)c(O)c(=O)n1C)[C@H](c1ccccc1)c1ccccc1C(F)(F)F (single isomer, unassigned) [Example 14 Isomer 3, 5-Hydroxy-N-(isoxazol-4-yl)-1-methyl-6-oxo-2-(1-phenyl-1-(2-(trifluoromethyl)phenyl)propan-2-yl)-1,6-dihydropyrimidine-4-carboxamide] | > 100 | > 10 |  |
| C[C@H](c1nc(C(=O)Nc2cnoc2)c(O)c(=O)n1C)[C@H](c1ccccc1)c1ccc(C(=O)N(C)C)cc1C#N (single isomer, unassigned) [Example 16 Isomer 1, 2-(1-(2-cyano-4-(dimethylcarbamoyl)phenyl)-1-phenylpropan-2-yl)-5-hydroxy-N-(isoxazol-4-yl)-1-methyl-6-oxo-1,6-dihydropyrimidine-4-carboxamide] | 1 to 10 | > 10 |  |
| C[C@H](c1nc(C(=O)Nc2cnoc2)c(O)c(=O)n1C)[C@H](c1ccccc1)c1ccc(C(=O)N(C)C)cc1C#N (single isomer, unassigned) [Example 16 Isomer 2, 2-(1-(2-cyano-4-(dimethylcarbamoyl)phenyl)-1-phenylpropan-2-yl)-5-hydroxy-N-(isoxazol-4-yl)-1-methyl-6-oxo-1,6-dihydropyrimidine-4-carboxamide] | > 100 | > 10 |  |
| CC(c1nc(C(=O)Nc2cnoc2)c(O)c(=O)n1C)C(c1ccccc1)c1cc(C(=O)N(C)C)ccc1C#N (single isomer, unassigned) [Example 17 Isomer 2] | > 100 | > 10 |  |
| CC(c1nc(C(=O)Nc2cnoc2)c(O)c(=O)n1C)C(c1ccccc1)c1cc(C(=O)N(C)C)ccc1C#N (single isomer, unassigned) [Example 17 Isomer 4] | 10 to 100 | > 10 |  |
| Cn1c([C@@H](CF)C(c2ccccc2)c2ccccc2)nc(C(=O)Nc2cnoc2)c(O)c1=O (single isomer, unassigned) [Example 18 Isomer 2, 2-(3-fluoro-1,1-diphenylpropan-2-yl)-5-hydroxy-N-(isoxazol-4-yl)-1-methyl-6-oxo-1,6-dihydropyrimidine-4-carboxamide] | > 100 | > 10 |  |
